The record followed here is patent publication US6943149B2, “Benzimidazolone peptidomimetics as thrombin receptor antagonists” (Ortho McNeil Pharmaceutical, Inc., priority 1999, dated 2005).

SMILES strings stand for the structures.

Experiment [1] concerns gel-filtered platelets (thrombin-stimulated aggregation). Description: Thrombin-induced gel-filtered platelet aggregation assay. It counts as cell-based. The note with it: human platelets, read-out: IC50 (μM) Thr GFP Aggr. How it is done: In Vitro Inhibition of Thrombin-Induced Gel-Filtered Platelet Aggregation Assay
The percentage of platelet aggregation is calculated as an increase in light transmission of compound-treated platelet concentrate vs. control-treated platelet concentrate. Human blood is obtained from drug free, normal donors in tubes containing 0.13M sodium citrate. Platelet rich plasma (PRP) is collected by centrifugation of whole blood at 200×g for 10 min at 25° C. The PRP (5 mL) is gel filtered through Sepharose 2B (bed volume 50 mL), and the platelet count is adjusted to 2×10^7 platelets per sample. The following constituents are added to a siliconized cuvette: concentrated platelet filtrate and Tyrode's buffer (0.14M NaCl, 0.0027M KCl, 0.012M NaHCO3, 0.76 mM Na2HPO4, 0.0055M glucose, 2 mg/mL BSA and 5.0 mM HEPES @ pH 7.4) in an amount equal to 350 μL, 50 μL of 20 mM calcium and 50 μL of the test compound. Aggregation is monitored in a BIODATA aggregometer for the 3 min following the addition of agonist (thrombin 50 μL of 1 unit/mL).

In experiment [2] the target is T1, Thrombin receptor (PAR-1) (Homo sapiens, UniProt P25116).
T1 construct: CHRF membranes (Jones, Biochim. Biophys. Acta 1992, 1136, 272) are thawed from −70° C; endogenous in cells; host or cells: CHRF cell membranes
T1 sequence (P25116 22-425): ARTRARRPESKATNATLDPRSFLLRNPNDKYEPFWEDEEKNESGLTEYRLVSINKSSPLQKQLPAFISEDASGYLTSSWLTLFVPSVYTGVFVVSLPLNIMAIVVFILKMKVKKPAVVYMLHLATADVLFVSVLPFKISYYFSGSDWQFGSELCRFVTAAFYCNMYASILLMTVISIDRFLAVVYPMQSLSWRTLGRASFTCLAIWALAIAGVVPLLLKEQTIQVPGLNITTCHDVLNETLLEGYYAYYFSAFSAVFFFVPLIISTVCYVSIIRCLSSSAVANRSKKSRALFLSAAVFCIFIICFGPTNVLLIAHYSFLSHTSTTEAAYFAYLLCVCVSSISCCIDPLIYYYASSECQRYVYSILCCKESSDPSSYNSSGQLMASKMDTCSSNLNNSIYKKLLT
Description: Thrombin receptor (PAR-1) binding assay. The conditions noted are these: CHRF membranes; tritiated 721-40 radioligand; read-out: IC50 (μM) Thr recptr Bdg. The method, then:
In Vitro Thrombin Receptor Binding Assay
CHRF membranes (Jones, Biochim. Biophys. Acta 1992, 1136, 272) are thawed from −70° C., centrifuged at maximum speed for 5 min, washed twice with binding buffer (50 mM HEPES containing 5 mM MgCl2 and 0.1% BSA), and re-suspended in binding buffer ([…]). 100 μL of membranes are added to the 24-Wallac plates and delivered to the Tomtech apparatus. In a typical experiment, 6 μL of samples (from a 125 μg/mL intermediary plate, 20% DMSO) and 44 μL buffer are delivered to the plates (final conc. of compounds is 3.7 μg/mL, 0.6% DMSO). Similarly, 6 μL 20% DMSO and 44 μL buffer are delivered to both column 1 (NSB) and column 12 (TB). 10 μL Ser-pFPhe-Har-Leu-Har-Lys-Tyr-NH2, SEQ ID NO 1, (721-40; 500 μM in deionized water) is added to column 1. 50 μL tritiated 721-40 (specific activity 46 Ci/mmol) is added to all the wells. The plates are mixed well for 20 seconds, incubated for 30 min, and then harvested with 10 mM HEPES/138 mM NaCl using the Skatron harvester. The filters (GF/C Brandel FPXLR 296) are presoaked 3 h in 0.5% polyethylenimine in HEPES/0.1M N-acetylglucosamine) are set in saran wrap and dried for 3 min in the microwave, and placed in sample bags (Wallac 1450-432). 4.5 mL scintillation fluid (Wallac, Betaplate Scint 1205-440) is added. The bags are sealed, placed in filter cassettes (Wallac 1450-104), and analyzed on the microbeta counter.

With `Cc1ccccc1Cn1c(=O)n(CCN(C)C)c2ccc(NC(=O)N[C@@H](Cc3ccc(F)c(F)c3)C(=O)N[C@@H](CCN)C(=O)NCc3ccccc3)cc21` [Compound 4], the figures for the IC50 in experiment [1] and in experiment [2] were 0.23 µM and 0.7 µM, respectively.
For `NCC[C@H](NC(=O)[C@H](Cc1ccc(F)c(F)c1)NC(=O)Nc1ccc2c(c1)n(Cc1ccc(F)cc1)c(=O)n2CCN1CCCC1)C(=O)NCc1ccccc1` [Compound 6], the IC50 in experiment [1] was determined as 6 µM; in experiment [2], 0.6 µM.
For the compound `NCC[C@H](NC(=O)[C@H](Cc1ccc(F)c(F)c1)NC(=O)Nc1ccc2c(c1)n(CCN1CCCC1)c(=O)n2Cc1c(Cl)cccc1Cl)C(=O)NCc1ccccc1` [Compound 7], the IC50 in experiment [1] is 5.5 µM; in experiment [2], 1.7 µM.
In the case of `Cc1ccccc1Cn1c(=O)n(CCN(C)C)c2cc(NC(=O)N[C@@H](Cc3ccc(F)c(F)c3)C(=O)N[C@@H](CCN)C(=O)NCc3ccccc3)ccc21` [Compound 3], the IC50 turned out to be 7.7 µM in experiment [1] and 1.9 µM in experiment [2].
Take `NCC[C@H](NC(=O)[C@H](Cc1ccc(F)c(F)c1)NC(=O)Nc1ccc2c(c1)n(Cc1c(Cl)cccc1Cl)c(=O)n2CCN1CCCC1)C(=O)NCc1ccccc1` [Compound 1]: the IC50 in experiment [1] came out at 0.39 µM; in experiment [2], 1.6 µM.
`Cc1ccccc1Cn1c(=O)n(CCN2CCCC2)c2cc(NC(=O)N[C@@H](Cc3ccc(F)c(F)c3)C(=O)N[C@@H](CCN)C(=O)NCc3ccccc3)ccc21` [Compound 2]: the half-maximal inhibitory concentration (IC50) worked out at 7 µM in experiment [1] and 3 µM in experiment [2].
For the compound `NCCNC(=O)[C@H](Cc1ccncc1)NC(=O)[C@H](Cc1ccc(F)c(F)c1)NC(=O)Nc1ccc2c(c1)n(Cc1ccc(F)cc1)c(=O)n2CCN1CCCC1` [Compound 8], the IC50 amounted to 5.8 µM in experiment [1] and 0.5 µM in experiment [2].
In the same order, the values of `Cc1ccccc1Cn1c(=O)n(CCN2CCCC2)c2ccc(NC(=O)N[C@@H](Cc3ccc(F)c(F)c3)C(=O)N[C@@H](CCN)C(=O)NCc3ccccc3)cc21` [Compound 5] are 0.28 µM and 0.4 µM.
